Assay results: patent US9303012B2, “Pyridine-2-amides useful as CB2 agonists” (Hoffmann-La Roche Inc., priority 2012, dated 2016)

Columns and labels:
human CB2 receptors = human CB2 receptors (Homo sapiens (Human), UniProt P34972); assay: functional cAMP assay, CHO cells expressing human CB2 receptors; type: cell-based
Procedure, shortened: (§1)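 CHO cells expressing human CB1 or CB2 were preincubated 30 min at 30 °C in Krebs Ringer bicarbonate with 1 mM IBMX, then exposed to compound 30 min at 30 °C. cAMP quantified by TR-FRET competition (Alexa700 antibody/ruthenium-cAMP) against a 10 μM–0.13 nM standard curve; EC50 derived.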

human CB1 receptors = human CB1 receptors (Homo sapiens (Human), UniProt P21554); assay: functional cAMP assay, CHO cells expressing human CB1 receptors; type: cell-based
Procedure, shortened: as §1

Chain of human CB1 receptors (P21554 whole entry): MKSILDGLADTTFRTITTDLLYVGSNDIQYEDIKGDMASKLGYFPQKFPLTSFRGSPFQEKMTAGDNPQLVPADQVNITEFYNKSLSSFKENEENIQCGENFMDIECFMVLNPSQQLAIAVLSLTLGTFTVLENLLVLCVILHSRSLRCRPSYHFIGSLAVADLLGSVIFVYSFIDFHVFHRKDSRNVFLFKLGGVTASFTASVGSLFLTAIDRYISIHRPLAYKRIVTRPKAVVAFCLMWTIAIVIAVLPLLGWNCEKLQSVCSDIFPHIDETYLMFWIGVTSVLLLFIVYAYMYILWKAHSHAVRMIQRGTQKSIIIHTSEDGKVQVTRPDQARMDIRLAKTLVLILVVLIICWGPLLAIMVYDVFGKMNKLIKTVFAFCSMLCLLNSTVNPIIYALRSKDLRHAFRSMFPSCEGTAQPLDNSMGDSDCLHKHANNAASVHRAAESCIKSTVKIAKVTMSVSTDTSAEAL
Chain of human CB2 receptors (P34972 whole entry): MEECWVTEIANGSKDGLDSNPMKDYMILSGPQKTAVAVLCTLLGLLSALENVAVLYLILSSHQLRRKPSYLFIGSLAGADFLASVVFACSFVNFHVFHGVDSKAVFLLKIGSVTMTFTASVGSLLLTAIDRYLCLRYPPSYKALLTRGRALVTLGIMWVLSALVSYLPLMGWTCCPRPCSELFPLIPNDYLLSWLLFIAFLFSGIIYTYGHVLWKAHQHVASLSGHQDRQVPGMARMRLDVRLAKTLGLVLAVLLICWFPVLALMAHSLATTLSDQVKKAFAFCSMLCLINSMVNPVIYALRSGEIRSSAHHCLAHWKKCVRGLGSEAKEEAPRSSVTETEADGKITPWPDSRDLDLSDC

NC(=O)[C@@H]1CSCN1C(=O)c1ccc(C2CC2)c(OCC2CC2)n1 [Example 97, (−)-3-(5-Cyclopropyl-6-cyclopropylmethoxy-pyridine-2-carbonyl)-thiazolidine-4-carboxylic acid amide]
EC50 (human CB2 receptors): 72.3 nM
EC50 (human CB1 receptors): > 10000 nM

NC(=O)[C@@H]1CC2(CC2)CN1C(=O)c1ccc(N2CC(F)(F)C2)c(OCC2CC2)n1 [Example 145, (6S)-5-[6-(Cyclopropylmethoxy)-5-(3,3-difluoroazetidin-1-yl)pyridine-2-carbonyl]-5-azaspiro[2.4]heptane-6-carboxamide]
EC50 (human CB2 receptors): 356 nM
EC50 (human CB1 receptors): > 10000 nM

O=C(c1ccc(N2CC(F)(F)C2)c(OCC2CC2)n1)N1C[C@H]2CC[C@@H](C1)O2 [Example 85, [6-Cyclopropylmethoxy-5-(3,3-difluoro-azetidin-1-yl)-pyridin-2-yl]-(1S,5R)-8-oxa-3-aza-bicyclo[3.2.1]oct-3-yl-methanone]
EC50 (human CB2 receptors): 85.4 nM
EC50 (human CB1 receptors): > 10000 nM

O=C(c1ccc(N2CC(F)(F)C2)c(OCC2CC2)n1)N1CCC2(CC(O)CO2)C1 (centres unmarked) [Example 82, [6-Cyclopropylmethoxy-5-(3,3-difluoro-azetidin-1-yl)-pyridin-2-yl]-(3-hydroxy-1-oxa-7-aza-spiro[4.4]non-7-yl)-methanone]
EC50 (human CB2 receptors): 356 nM
EC50 (human CB1 receptors): > 10000 nM

CN(C(=O)c1ccc(C2CC2)c(Cc2ccc(F)cc2)n1)C(C)(C)C [Example 5, 5-Cyclopropyl-6-(4-fluoro-benzyl)-pyridine-2-carboxylic acid tert-butyl-methyl-amide]
EC50 (human CB2 receptors): 0.8 nM
EC50 (human CB1 receptors): 268 nM

O=C(c1ccc(N2CC(F)(F)C2)c(OCC2CC2)n1)N1CCN(CC2CC2)CC1 [Example 106, [6-Cyclopropylmethoxy-5-(3,3-difluoro-azetidin-1-yl)-pyridin-2-yl]-(4-cyclopropylmethyl-piperazin-1-yl)-methanone]
EC50 (human CB2 receptors): 123 nM
EC50 (human CB1 receptors): > 10000 nM

O=C(OCc1ccccc1)N1CCN(C(=O)c2ccc(N3CC(F)(F)C3)c(OCC3CC3)n2)CC1 [Example 109, 4-[6-Cyclopropylmethoxy-5-(3,3-difluoro-azetidin-1-yl)-pyridine-2-carbonyl]-piperazine-1-carboxylic acid benzyl ester]
EC50 (human CB2 receptors): 360 nM
EC50 (human CB1 receptors): > 10000 nM

NC(=O)[C@H]1CC(F)(F)CN1C(=O)c1ccc(C2CC2)c(OCC(F)(F)C(F)(F)F)n1 [Example 87, (R)-1-[5-Cyclopropyl-6-(2,2,3,3,3-pentafluoro-propoxy)-pyridine-2-carbonyl]-4,4-difluoro-pyrrolidine-2-carboxylic acid amide]
EC50 (human CB2 receptors): 768 nM
EC50 (human CB1 receptors): > 10000 nM

CN(C)C(=O)c1ccc(N2CC(F)(F)C2)c(OCC2CC2)n1 [Example 2, 6-Cyclopropylmethoxy-5-(3,3-difluoro-azetidin-1-yl)-pyridine-2-carboxylic acid dimethylamide]
EC50 (human CB2 receptors): 297 nM
EC50 (human CB1 receptors): > 10000 nM

CCN(C(=O)c1ccc(N2CC(F)(F)C2)c(OCC2CC2)n1)C(C)(C)C [Example 7, 6-Cyclopropylmethoxy-5-(3,3-difluoro-azetidin-1-yl)-pyridine-2-carboxylic acid tert-butyl-ethyl-amide]
EC50 (human CB2 receptors): 0.6 nM
EC50 (human CB1 receptors): 292 nM

CC1(C)CCCN1C(=O)c1ccc(C2CC2)c(OCC(F)(F)C(F)(F)F)n1 [Example 84, [5-Cyclopropyl-6-(2,2,3,3,3-pentafluoro-propoxy)-pyridin-2-yl]-(2,2-dimethyl-pyrrolidin-1-yl)-methanone]
EC50 (human CB2 receptors): 18.9 nM
EC50 (human CB1 receptors): > 10000 nM

CC1(C)C[C@H](C(N)=O)N(C(=O)c2ccc(C3CC3)c(OCC3CC3)n2)C1 [Example 94, (+)-1-(5-Cyclopropyl-6-cyclopropylmethoxy-pyridine-2-carbonyl)-4,4-dimethyl-pyrrolidine-2-carboxylic acid amide]
EC50 (human CB2 receptors): 80.2 nM
EC50 (human CB1 receptors): > 10000 nM

NC(=O)C1C[S+]([O-])CN1C(=O)c1ccc(N2CC(F)(F)C2)c(OCC2CC2)n1 (centres unmarked) [Example 124, 3-[6-(Cyclopropylmethoxy)-5-(3,3-difluoroazetidin-1-yl)pyridine-2-carbonyl]-1-oxo-1,3-thiazolidine-4-carboxamide]
EC50 (human CB2 receptors): 52.6 nM
EC50 (human CB1 receptors): > 10000 nM

O=C(c1ccc(N2CC(F)(F)C2)c(OCC2CC2)n1)N1CC2(CCCO2)C1 [Example 99, [6-Cyclopropylmethoxy-5-(3,3-difluoro-azetidin-1-yl)-pyridin-2-yl]-(5-oxa-2-aza-spiro[3.4]oct-2-yl)-methanone]
EC50 (human CB2 receptors): 305 nM
EC50 (human CB1 receptors): > 10000 nM

O=C(c1ccc(N2CC(F)(F)C2)c(OCC2CC2)n1)N1CC2(COC2)C1 [Example 11, [6-Cyclopropylmethoxy-5-(3,3-difluoro-azetidin-1-yl)-pyridin-2-yl]-(2-oxa-6-aza-spiro[3.3]hept-6-yl)-methanone]
EC50 (human CB2 receptors): 364 nM
EC50 (human CB1 receptors): > 10000 nM

CC1(C)CC(C(N)=O)N(C(=O)c2ccc(C3CC3)c(OCC3CC3)n2)C1 (centres unmarked) [Example 90, 1-(5-Cyclopropyl-6-cyclopropylmethoxy-pyridine-2-carbonyl)-4,4-dimethyl-pyrrolidine-2-carboxylic acid amide]
EC50 (human CB2 receptors): 14.8 nM
EC50 (human CB1 receptors): > 10000 nM

CC(Oc1nc(C(=O)N(C)C(C)(C)C)ccc1C1CC1)C(F)(F)F (centres unmarked) [Example 13, 5-Cyclopropyl-6-(2,2,2-trifluoro-1-methyl-ethoxy)-pyridine-2-carboxylic acid tert-butyl-methyl-amide]
EC50 (human CB2 receptors): 119 nM
EC50 (human CB1 receptors): > 10000 nM

CCN(C(=O)c1ccc(N2CC(F)(F)C2)c(OCC2CC2)n1)C1(C(F)(F)F)CC1 [Example 21, 6-Cyclopropylmethoxy-5-(3,3-difluoro-azetidin-1-yl)-pyridine-2-carboxylic acid ethyl-(1-trifluoromethyl-cyclopropyl)-amide]
EC50 (human CB2 receptors): 2.8 nM
EC50 (human CB1 receptors): > 10000 nM

NC(=O)[C@@H]1N(C(=O)c2ccc(N3CC(F)(F)C3)c(OCC3CC3)n2)CCC12CC2 [Example 151, (−)-5-[6-(Cyclopropylmethoxy)-5-(3,3-difluoroazetidin-1-yl)pyridine-2-carbonyl]-5-azaspiro[2.4]heptane-4-carboxamide]
EC50 (human CB2 receptors): 818 nM
EC50 (human CB1 receptors): > 10000 nM

CC1(C)COCN1C(=O)c1ccc(OCC2CC2)c(Cl)n1 [Example 49, (6-Chloro-5-cyclopropylmethoxy-pyridin-2-yl)-(4,4-dimethyl-oxazolidin-3-yl)-methanone]
EC50 (human CB2 receptors): 139 nM
EC50 (human CB1 receptors): > 10000 nM

O=C(c1ccc(N2CC(F)(F)C2)c(OCC2CC2)n1)N1C[C@@H]2C[C@H]1CN2Cc1ccccc1 [Example 63, ((1S,4S)-5-Benzyl-2,5-diaza-bicyclo[2.2.1]hept-2-yl)-[6-cyclopropylmethoxy-5-(3,3-difluoro-azetidin-1-yl)-pyridin-2-yl]-methanone]
EC50 (human CB2 receptors): 198 nM
EC50 (human CB1 receptors): > 10000 nM

CN(C(=O)c1ccc(C2CC2)c(OCC2CC2)n1)C(C)(C)C [Example 3, 5-Cyclopropyl-6-cyclopropylmethoxy-pyridine-2-carboxylic acid tert-butyl-methyl-amide]
EC50 (human CB2 receptors): 7.2 nM
EC50 (human CB1 receptors): > 10000 nM

CC1(C)SCN(C(=O)c2ccc(N3CC(F)(F)C3)c(OCC3CC3)n2)[C@@H]1C(N)=O [Example 120, (R)-3-[6-Cyclopropylmethoxy-5-(3,3-difluoro-azetidin-1-yl)-pyridine-2-carbonyl]-5,5-dimethyl-thiazolidine-4-carboxylic acid amide]
EC50 (human CB2 receptors): 42 nM
EC50 (human CB1 receptors): > 10000 nM

NC(=O)[C@@H]1C[C@@H](F)CN1C(=O)c1ccc(N2CC(F)(F)C2)c(OCC2CC2)n1 [Example 126, (2S,4R)-1-[6-(Cyclopropylmethoxy)-5-(3,3-difluoroazetidin-1-yl)pyridine-2-carbonyl]-4-fluoropyrrolidine-2-carboxamide]
EC50 (human CB2 receptors): 40 nM
EC50 (human CB1 receptors): > 10000 nM

CC1(O)CCN(C(=O)c2ccc(N3CC(F)(F)C3)c(OCC3CC3)n2)CC1 [Example 61, [6-Cyclopropylmethoxy-5-(3,3-difluoro-azetidin-1-yl)-pyridin-2-yl]-(4-hydroxy-4-methyl-piperidin-1-yl)-methanone]
EC50 (human CB2 receptors): 391 nM
EC50 (human CB1 receptors): > 10000 nM

NC(=O)[C@@H]1CC(F)(F)CN1C(=O)c1ccc(C2CC2)c(Cc2ccc(F)cc2)n1 [Example 76, (S)-1-[5-Cyclopropyl-6-(4-fluoro-benzyl)-pyridine-2-carbonyl]-4,4-difluoro-pyrrolidine-2-carboxylic acid amide]
EC50 (human CB2 receptors): 0.2 nM
EC50 (human CB1 receptors): 167 nM

CC1(C)COCN1C(=O)c1ccc(OC(F)(F)F)c(OCC2CC2)n1 [Example 48, (6-Cyclopropylmethoxy-5-trifluoromethoxy-pyridin-2-yl)-(4,4-dimethyl-oxazolidin-3-yl)-methanone]
EC50 (human CB2 receptors): 108 nM
EC50 (human CB1 receptors): > 10000 nM

NC(=O)C1CC2(CC2)CN1C(=O)c1ccc(N2CC(F)(F)C2)c(OCC2CC2)n1 (centres unmarked) [Example 135, 5-[6-(Cyclopropylmethoxy)-5-(3,3-difluoroazetidin-1-yl)pyridine-2-carbonyl]-5-azaspiro[2.4]heptane-6-carboxamide]
EC50 (human CB2 receptors): 15.6 nM
EC50 (human CB1 receptors): > 10000 nM

NC(=O)[C@@H]1C[C@H](O)CN1C(=O)c1ccc(N2CC(F)(F)C2)c(OCC2CC2)n1 [Example 79, (2S,4S)-1-[6-Cyclopropylmethoxy-5-(3,3-difluoro-azetidin-1-yl)-pyridine-2-carbonyl]-4-hydroxy-pyrrolidine-2-carboxylic acid amide]
EC50 (human CB2 receptors): 519 nM
EC50 (human CB1 receptors): > 10000 nM

CC1CN(C(=O)c2ccc(N3CC(F)(F)C3)c(OCC3CC3)n2)CC(C)O1 (centres unmarked) [Example 119, [6-Cyclopropylmethoxy-5-(3,3-difluoro-azetidin-1-yl)-pyridin-2-yl]-(2,6-dimethyl-morpholin-4-yl)-methanone]
EC50 (human CB2 receptors): 599 nM
EC50 (human CB1 receptors): > 10000 nM

CC1(C)CN(C(=O)c2ccc(N3CC(F)(F)C3)c(OCC3CC3)n2)CCO1 [Example 55, [6-Cyclopropylmethoxy-5-(3,3-difluoro-azetidin-1-yl)-pyridin-2-yl]-(2,2-dimethyl-morpholin-4-yl)-methanone]
EC50 (human CB2 receptors): 55.4 nM
EC50 (human CB1 receptors): > 10000 nM
